These results are taken from PubChem BioAssay AID179 (DTP/NCI, 2004).

The subject of this test is CEM cells HIV-1 protection, formazan growth assay. Kind of test: NCI AIDS Antiviral Assay. The note with it: for pIC50: measured here: growth of uninfected CEM cells. The method in brief:
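CEM (human) cells, HIV-1 infected vs uninfected, 5-point dosing, formazan growth read-out. Retest threshold 50% protection.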

For orientation: pEC50 means the negative decadic logarithm of the EC50, by convention in mol/L. As usually defined, the pIC50 is −log10 of the IC50, conventionally taken in molar units. High values mean a small IC50, low ones a large IC50.

pEC50, pIC50: −log10 of the molar value. Active and inactive are the calls of the source.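 How the source made its calls: active means compounds giving half or more protection of infected cells from virus-caused growth loss, again on retest; inactive means the rest.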 *1 amine or outer side, *2 acyl side, *3 side chain or, on linkers, in order; H or OH if unused. Where a SMILES comes first, the peptide text is derived from it. [ ]: non-standard residue; d: D form. The star is where a group is joined. ξ: configuration not given here. X15 = O=C([C@H]1CCC[C@H]1N[*:1])[*:2]; ξW = NC(Cc1c[nH]c2ccccc12)C(=O)O; ξF = NC(Cc1ccccc1)C(=O)O; Boc = CC(C)(C)OC(=O)*; ξK = NCCCCC(N)C(=O)O; ξT = CC(O)C(N)C(=O)O; tBu = CC(C)(C)* Bounds are passed on as bounds.

As for `COC/N=C(/N)NC#N`, the pEC50 is below 3.16 and the negative logarithm of the IC50 (pIC50) is below 3.16. Consider `O=c1c(O)c(O)c1=O.[NH2-].[NH2-].[NH2-].[NH2-].[NH2-].[Ru+5]`, for which the pEC50 is below 4.67 and the pIC50 is below 4.67. As to `CC1C(c2ccc(N(C)C)cc2)c2cc3c(cc2OC1N1CCCC1)OCO3` (stereo not given), the pEC50 is below 4.00 and the pIC50 is 4.77. Take `COc1ccc2nc(NC(=O)C(=O)C(C#N)c3ccc(CC#N)cc3)sc2c1` (stereo not given): the outcome was inactive.

On to `O=C1CCCCC1CN1CCCC1` (stereo not given), for which the result was inactive. With `Cc1ccc(C)n1-n1c(Cc2ccccc2)n[nH]c1=O`, the pEC50 was below 3.70 and the pIC50 is 4.08. In the case of `CN(C)CCCOc1ccc(/C=C2/CCC/C(=C/c3ccc(OCCCN(C)C)cc3)C2=O)cc1`, the pEC50 is below 4.82 and the pIC50 was 5.98. Regarding `CCN(CC)CCCCC1CCN(CC(=O)N2c3cc(Cl)ccc3NC(=O)CC2C)CC1` (stereo not given), the pEC50 was below 3.60 and the pIC50 is 4.18.

As for `COc1cc2ccn3c4cc(OC)c(OC)cc4cc3c2cc1OC`, the pEC50 is 5.10 and the pIC50 is 5.09.

Turning to `CC(C)=CCC[C@@H](C)C1=C(O)C(c2c(I)c(=O)n(C)c(=O)n2C)=C(C)C(=O)C1=O`, the pEC50 is below 3.70 and the pIC50 was 3.95. With `N#Cc1c(N2CCOCC2)[nH]c(=O)n(-c2ccccc2)c1=S`, the pEC50 was below 3.70 and the pIC50 is below 3.70. As for `O=Nc1c(Br)cc(Br)c2ccc3c(Br)cc(Br)c(N=O)c3c12`, the pEC50 was below 4.30 and the pIC50 is below 4.30. Regarding `COc1cccc(-n2c3nc(=O)n(C)c(=O)c-3nc3ccccc32)c1`, the outcome was inactive. On the same count and under the same terms, the same measure for `C[N+]1(CCCC(O)CC[N+]2(C)CCCC2)CCCC1` (stereo not given): “inactive”. With `Cc1cc(=O)[nH]c(N/N=C/c2ccc(Cl)c(Cl)c2)n1`, the pEC50 was below 4.61 and the pIC50 was 4.91. Regarding `Oc1[nH]c2ccccc2c1N=NC1=NCCCCN1`, the pEC50 was below 3.70 and the pIC50 was below 3.70. On to `N#CCCC[Si]12OCCN(CCO1)CCO2`, for which the result was inactive. On to `O=[N+]([O-])c1[nH]cnc1S`, for which the pEC50 was below 3.70 and the pIC50 was below 3.70.

On to `c1ccc(-c2nnc3oc(-c4cccs4)nn23)cc1`, for which the pEC50 was below 4.00 and the pIC50 was below 4.00. `COC1=C(N)C(=O)c2nc(C)ccc2C1=O`: the result was inactive.

As to `Cn1c2ccccc2c(=NNc2ccc(C(=O)O)cc2)c2ccccc21`, the pEC50 is below 3.70 and the pIC50 is 4.86.

Turning to `CC(OC(C)(C)C)C1NC(=O)C(CCCCNC(=O)OC(C)(C)C)NC(=O)C(Cc2c[nH]c3ccccc23)NC(=O)C(Cc2ccccc2)NC(=O)[C@H]2CCC[C@H]2NC(=O)C(Cc2ccccc2)NC1=O` (stereo not given in full) (cyclo([X15][ξF][ξW][ξK](Boc)[ξT](tBu)[ξF])), the result was inactive. On to `COc1ccc(C=C2C(=O)OC(C)(C)OC2=O)cc1`, for which the pEC50 is below 3.30 and the pIC50 is 3.82. Consider `N#C/C(=C\c1ccc(Cl)cc1)c1ccccc1`, for which the pEC50 was below 3.70 and the pIC50 was 4.49. `NC(=O)C(=O)C1C(=O)N(c2ccccc2)N=C1N` (stereo not given): the outcome was inactive.

In the case of `CCC(c1ccc(N(C)C)cc1)C1NC(=S)NC1=O` (stereo not given), the pEC50 is below 3.70 and the pIC50 is 4.59.

On to `COc1ccc(C(C)NNC(=O)c2ccncc2)c(OC)c1` (stereo not given), for which the pEC50 is below 3.70 and the pIC50 was 4.53. The matching figures for `Nc1nc(Cl)cc(NCCC2(CO)CCC2)n1`: below 3.70 and below 3.70.

In the case of `CC1(C)CCC(=O)c2c(O)ccc(O)c21`, the result was inactive.

On to `CC(=O)NC(CS)C(=O)NC(CO)C(=O)NC(CO)C(=O)NC(Cc1c[nH]c2ccccc12)C(=O)N1CCCC1C(=O)NC(CO)C(=O)NC(Cc1c[nH]c2ccccc12)C(=O)NC(Cc1c[nH]cn1)C(=O)NC(CO)C(=O)NC(Cc1c[nH]c2ccccc12)C(=O)NCC(=O)NCC(=O)NC(C)C(=O)NC(CCC(N)=O)C(=O)NC(CCCCN)C(=O)NC(C)C(=O)NC(CCCNC(=N)N)C(=O)NC(CCCCN)C(N)=O` (stereo not given) (Ac-CSSWPSWHSWGGAQKARK-NH2; configuration not given here), for which the pEC50 is below 4.70 and the pIC50 was 4.76. The like results for `COC(=O)CN(CC1O[C@@H]2OC(C)(C)O[C@@H]2C1NC(C)=O)C(=O)OCc1ccccc1` (stereo not given in full) were, in that order, below 3.70 and below 3.70.

For `CC(C)CNC(=O)c1c(NC(=O)c2ccccc2)sc2[nH]c(=O)n(-c3ccccc3)c(=O)c12`, the pEC50 is below 4.30 and the pIC50 was below 4.30. Turning to `COc1ccc2nc3ccccc3c(NCCCN(C)C)c2c1[N+](=O)[O-]`, the pEC50 is below 3.70 and the pIC50 is 6.23. The like results for `N#Cc1ccc(CSc2ncnc3nc[nH]c23)cc1` were, in that order, below 3.70 and 4.09.

In the case of `CC1CCCN(CCSSCCN2CCCC(C)C2)C1` (stereo not given), the pEC50 is below 3.70 and the pIC50 is 4.15.

As to `NC(=O)NNC(=O)c1nc[nH]c1[N+](=O)[O-]`, the pEC50 is below 3.70 and the negative-log IC50 (pIC50) is below 3.70. As for `CN(CCC#N)c1ccc(/C=C(\C#N)c2ccc(Br)cc2)cc1`, the pEC50 is below 3.70 and the pIC50 is 5.34. Consider `CCC12CCCN3CCC4(C(=Nc5cc(OC)ccc54)CC1)C32` (stereo not given), for which the outcome was inactive.

For the molecule `CCOC(=O)C[n+]1cccc(C2(c3cc4ccccc4[nH]3)OCCO2)c1`, the pEC50 was below 3.70 and the pIC50 is below 3.70. Take `CC1(C)C2CCC(=O)C1CC2` (stereo not given): the pEC50 is below 3.70 and the pIC50 was below 3.70.

As for `C=CCNC(=S)Nc1ccccn1`, the pEC50 is below 3.70 and the pIC50 is below 3.70. For `N#C/C(=C\NC(=S)NCc1ccccc1)c1nc2ccccc2s1`, the pEC50 was below 3.70 and the pIC50 is 4.32. Regarding `CCOC(=O)c1cnc2ccc(C)cn2c1=O`, the result was inactive. In the case of `COc1cc2c3cc1Oc1c(O)c(OC)cc4c1C(Cc1ccc(O)c(c1)Oc1ccc(cc1)CC3N(C)CC2)N(C)CC4` (stereo not given), the result was inactive.

For `CC(C)(C)C(=O)OCC(COC(=O)C(C)(C)C)[N+](=O)[O-]`, the outcome was inactive.

Take `COC(=O)c1nc(N)nc(C(=O)OC)c1C(=O)c1ccccc1`: the pEC50 is below 4.22 and the pIC50 was below 4.22. On to `CC1=C(C(=O)N(C)c2ccc(Cl)c(C(=O)OC(C)C)c2)SCCO1`, for which the pEC50 is below 3.62 and the negative-log IC50 (pIC50) is 4.03. For the molecule `CC1=C(c2cc(C(=O)Nc3cccc(Cl)c3)nc(NC#N)n2)Sc2ccccc2N1`, the result was inactive. Take `OCc1c2c(cc3c1CC1(C3)Cc3cc4c(c(CO)c3C1)CCC4)CCC2`: the pEC50 was below 3.70 and the pIC50 was 5.09. Consider `COc1ccc(/C=N/N=C(N)N)c(C(=O)O)c1OC`, for which the result was inactive. With `Cc1ccc2c(c1)CN(C(=O)CCC(=O)OCc1ccccc1)c1ccc(C)cc1CN2C(=O)CCC(=O)OCc1ccccc1`, the outcome was inactive. As for `CSCCC(NP(=S)(c1ccccc1)c1ccccc1)C(=O)O` (stereo not given), the pEC50 was below 3.70 and the pIC50 was below 3.70. Consider `CC(=O)c1c2c(cc3c1CC1(Cc4cc5c(cc4C1)C(=O)CCC5)C3)CCCC2` (stereo not given), for which the pEC50 was below 3.70 and the pIC50 is 5.44.
